Experimental data published in patent publication US12696901B2, “Pesticidally active heterocyclic derivatives with sulfur containing substituents” (SYNGENTA CROP PROTECTION AG, priority 2020, dated 2026).

Experiments:
Assay type in all cases: in vivo
[1] = tested on: Bemisia tabaci (Cotton White Fly); test: Activity against Bemisia tabaci (cotton white fly), sprayed cotton leaf discs; details: foliar, 144 h, application rate 200 ppm, adult white flies, 6 days after incubation
Method: Example B1: Activity Against Bemisia tabaci (Cotton White Fly)
Cotton leaf discs were placed on agar in 24-well microtiter plates and sprayed with aqueous test solutions prepared from 10,000 ppm DMSO stock solutions. After drying the leaf discs were infested with adult white flies. The samples were checked for mortality 6 days after incubation.

[2] = tested on: Diabrotica balteata (Corn Root Worm); test: Activity against Diabrotica balteata (corn root worm), sprayed maize sprouts on agar; details: 96 h, application rate 200 ppm, L2 larvae, 4 days after infestation, read-out: effect in at least one of the two categories (mortality or growth inhibition)
Method: Example B2: Activity Against Diabrotica balteata (Corn Root Worm)
Maize sprouts placed onto an agar layer in 24-well microtiter plates were treated with aqueous test solutions prepared from 10,000 ppm DMSO stock solutions by spraying. After drying, the plates were infested with L2 larvae (6 to 10 per well). The samples were assessed for mortality and growth inhibition in comparison to untreated samples 4 days after infestation.

[3] = tested on: Euschistus heros (Neotropical Brown Stink Bug); test: Activity against Euschistus heros (neotropical brown stink bug), sprayed soybean leaves; details: 120 h, application rate 200 ppm, N2 nymphs, 5 days after infestation, read-out: effect in at least one of the two categories (mortality or growth inhibition)
Method: Example B3: Activity Against Euschistus heros (Neotropical Brown Stink Bug)
Soybean leaves on agar in 24-well microtiter plates were sprayed with aqueous test solutions prepared from 10,000 ppm DMSO stock solutions. After drying the leaves were infested with N2 nymphs. The samples were assessed for mortality and growth inhibition in comparison to untreated samples 5 days after infestation.

[4] = tested on: Frankliniella occidentalis (Western Flower Thrips); test: Activity against Frankliniella occidentalis (western flower thrips), sprayed sunflower leaf discs; details: foliar, 168 h, application rate 200 ppm, population of mixed ages, 7 days after infestation
Method: Example B4: Activity Against Frankliniella occidentalis (Western Flower Thrips)
Sunflower leaf discs were placed on agar in 24-well microtiter plates and sprayed with aqueous test solutions prepared from 10,000 ppm DMSO stock solutions. After drying the leaf discs were infested with a Frankliniella population of mixed ages. The samples were assessed for mortality 7 days after infestation.

[5] = tested on: Plutella xylostella (Diamond Back Moth); test: Activity against Plutella xylostella (diamond back moth), treated artificial diet; details: 192 h, application rate 200 ppm, eggs, 8 days after infestation, read-out: effect in at least one of the two categories (mortality or growth inhibition)
Method: Example B5: Activity Against Plutella xylostella (Diamond Back Moth)
24-well microtiter plates with artificial diet were treated with aqueous test solutions prepared from 10,000 ppm DMSO stock solutions by pipetting. After drying, Plutella eggs were pipetted through a plastic stencil onto a gel blotting paper and the plate was closed with it. The samples were assessed for mortality and growth inhibition in comparison to untreated samples 8 days after infestation.

[6] = tested on: Myzus persicae (Green Peach Aphid); test: Activity against Myzus persicae (green peach aphid), feeding/contact activity; details: 144 h, application rate 200 ppm, mixed ages, 6 days after infestation
Method: Example B6: Activity Against Myzus persicae (Green Peach Aphid) Feeding/Contact Activity
Sunflower leaf discs were placed onto agar in a 24-well microtiter plate and sprayed with aqueous test solutions prepared from 10,000 ppm DMSO stock solutions. After drying, the leaf discs were infested with an aphid population of mixed ages. The samples were assessed for mortality 6 days after infestation.

[7] = tested on: Spodoptera littoralis (Egyptian Cotton Leaf Worm); test: Activity against Spodoptera littoralis (Egyptian cotton leaf worm), sprayed cotton leaf discs; details: foliar, 72 h, application rate 200 ppm, L1 larvae, 3 days after infestation
Method: Example B7: Activity Against Spodoptera littoralis (Egyptian Cotton Leaf Worm)
Cotton leaf discs were placed onto agar in 24-well microtiter plates and sprayed with aqueous test solutions prepared from 10,000 ppm DMSO stock solutions. After drying the leaf discs were infested with five L1 larvae. The samples were assessed for mortality, anti-feeding effect, and growth inhibition in comparison to untreated samples 3 days after infestation. Control of Spodoptera littoralis by a test sample is given when at least one of the categories mortality, anti-feedant effect, and growth inhibition is higher than the untreated sample.

[8] = tested on: Carpocapsa (Cydia) Pomonella (Codling Moth); test: Activity against Carpocapsa (Cydia) pomonella (codling moth), sprayed diet cubes; details: 336 h, application rate 12.5 ppm, L1 larvae, 14 days after infestation, read-out: effect in at least one of the two categories (mortality or growth inhibition)
Method: Example B11: Activity Against Carpocapsa (Cydia) Pomonella (Codling Moth)
Diet cubes coated with paraffin were sprayed with diluted test solutions in an application chamber. After drying off the treated cubes (10 replicates) were infested with 1 L1 larvae. Samples were incubated at 26-27° C. and checked 14 days after infestation for mortality and growth inhibition. The following compounds gave an effect of at least 80% in at least one of the two categories (mortality or growth inhibition) at an application rate of 12.5 ppm: P1, P2, P3, P4, P5, P6, P10, P11, P12, P14, P15, P16, P17, P19, P20, P21, P22, P24, P27, P29, P30, P33, P34, P35.

[9] = tested on: Diabrotica balteata (Corn Root Worm); test: Activity against Diabrotica balteata (corn root worm), corn seedlings on filter paper in cups; details: 120 h, application rate 3 ppm, L2 larva, 5 days after treatment, read-out: effect in at least one of the two categories (mortality or growth inhibition)
Method: Example B12: Activity Against Diabrotica Balteata (Corn Root Worm)
Three corn seedlings were placed on wetted filter paper in plastic cups, and 3 ml of diluted test solutions were pipetted onto them. The cups were infested with 10 L2 larva and checked for mortality and growth regulation 5 days after treatment.

[10] = tested on: Chilo suppressalis (Striped Rice Stemborer); test: Activity against Chilo suppressalis (striped rice stemborer), treated artificial diet; details: 144 h, application rate 200 ppm, L2 larvae, 6 days after infestation
Method: Example B10: Activity Against Chilo suppressalis (Striped Rice Stemborer)
24-well microtiter plates with artificial diet were treated with aqueous test solutions prepared from 10,000 ppm DMSO stock solutions by pipetting. After drying, the plates were infested with L2 larvae (6-8 per well). The samples were assessed for mortality, anti-feeding effect, and growth inhibition in comparison to untreated samples 6 days after infestation. Control of Chilo suppressalis by a test sample is given when at least one of the categories mortality, anti-feedant effect, and growth inhibition is higher than the untreated sample.

CCS(=O)(=O)c1c(N2Cc3ncc(C(F)(F)F)cc3C2=O)nc2cc(C3(C#N)CC3)ccn12 [Compound P3, 1-[3-ethylsulfonyl-2-[5-oxo-3-(trifluoromethyl)-7H-pyrrolo[3,4-b]pyridin-6-yl]imidazo [1,2-a]pyridin-7-yl] cyclopropane-carbonitrile]
≥ 80%: mortality at 200 ppm [1] | percent effect (mortality or growth inhibition) at 200 ppm [2] | percent effect (mortality or growth inhibition) at 200 ppm [3] | mortality at 200 ppm [4] | percent effect (mortality or growth inhibition) at 200 ppm [5] | mortality at 200 ppm [6] | percent control (mortality, anti-feedant effect or growth inhibition) at 200 ppm [7] | percent effect (mortality or growth inhibition) at 12.5 ppm [8] | percent effect (mortality or growth inhibition) at 3 ppm [9]

CCS(=O)(=O)c1c(N2Cc3ncc(C(F)(F)F)cc3C2=O)nc2ccc(C(F)(F)F)cn12 [Compound P4, 6-[3-ethylsulfonyl-6-(trifluoromethyl)imidazo[1,2-a]pyridin-2-yl]-3-(trifluoromethyl)-7H-pyrrolo[3,4-b] pyridin-5-one]
≥ 80%: mortality at 200 ppm [1] | percent effect (mortality or growth inhibition) at 200 ppm [2] | percent effect (mortality or growth inhibition) at 200 ppm [3] | percent effect (mortality or growth inhibition) at 200 ppm [5] | mortality at 200 ppm [6] | percent control (mortality, anti-feedant effect or growth inhibition) at 200 ppm [7] | percent effect (mortality or growth inhibition) at 12.5 ppm [8] | percent effect (mortality or growth inhibition) at 3 ppm [9]

CCS(=O)(=O)c1c(N2Cc3ccc(OC(F)(F)F)cc3C2=O)nc2cc(C3(C#N)CC3)ccn12 [Compound P5, 1-[3-ethylsulfonyl-2-[1-oxo-6-(trifluoromethoxy)isoindolin-2-yl]imidazo[1,2-a]pyridin-7-yl] cyclopropane-carbonitrile]
≥ 80%: mortality at 200 ppm [1] | percent effect (mortality or growth inhibition) at 200 ppm [2] | percent effect (mortality or growth inhibition) at 200 ppm [3] | mortality at 200 ppm [4] | percent effect (mortality or growth inhibition) at 200 ppm [5] | mortality at 200 ppm [6] | percent control (mortality, anti-feedant effect or growth inhibition) at 200 ppm [7] | percent effect (mortality or growth inhibition) at 12.5 ppm [8] | percent effect (mortality or growth inhibition) at 3 ppm [9]

CCS(=O)(=O)c1c(N2Cc3ccc(OC(F)(F)F)cc3C2=O)nc2ccc(C(F)(F)F)cn12 [Compound P6, 2-[3-ethylsulfonyl-6-(trifluoromethyl)imidazo[1,2-a]pyridin-2-yl]-6-(trifluoromethoxy) isoindolin-1-one]
≥ 80%: mortality at 200 ppm [1] | percent effect (mortality or growth inhibition) at 200 ppm [2] | percent effect (mortality or growth inhibition) at 200 ppm [3] | percent effect (mortality or growth inhibition) at 200 ppm [5] | mortality at 200 ppm [6] | percent control (mortality, anti-feedant effect or growth inhibition) at 200 ppm [7] | percent effect (mortality or growth inhibition) at 12.5 ppm [8] | percent effect (mortality or growth inhibition) at 3 ppm [9]

CCS(=O)(=O)c1c(N2Cc3ncc(C(F)(F)F)cc3C2=O)nc2ccc(C3CC3)cn12 [Compound P27, 6-(6-cyclopropyl-3-ethylsulfonyl-imidazo [1,2-a]pyridin-2-yl)-3-(trifluoromethyl)-7H-pyrrolo[3,4-b]pyridin-5-one]
≥ 80%: percent effect (mortality or growth inhibition) at 200 ppm [2] | percent effect (mortality or growth inhibition) at 200 ppm [3] | mortality at 200 ppm [4] | percent effect (mortality or growth inhibition) at 200 ppm [5] | mortality at 200 ppm [6] | percent control (mortality, anti-feedant effect or growth inhibition) at 200 ppm [7] | percent control (mortality, anti-feedant effect or growth inhibition) at 200 ppm [10] | percent effect (mortality or growth inhibition) at 12.5 ppm [8] | percent effect (mortality or growth inhibition) at 3 ppm [9]

CCS(=O)(=O)c1c(N2Cc3ccc(S(=O)(=O)C(F)(F)F)cc3C2=O)nc2cc(OCC(F)(F)F)ccn12 [Compound P33, 2-[3-ethylsulfonyl-7-(2,2,2-trifluoroethoxy)imidazo[1,2-a]pyridin-2-yl]-6-(trifluoromethylsulfonyl)isoindolin-1-one]
≥ 80%: mortality at 200 ppm [1] | percent effect (mortality or growth inhibition) at 200 ppm [2] | percent effect (mortality or growth inhibition) at 200 ppm [3] | mortality at 200 ppm [4] | percent effect (mortality or growth inhibition) at 200 ppm [5] | mortality at 200 ppm [6] | percent control (mortality, anti-feedant effect or growth inhibition) at 200 ppm [7] | percent control (mortality, anti-feedant effect or growth inhibition) at 200 ppm [10] | percent effect (mortality or growth inhibition) at 12.5 ppm [8] | percent effect (mortality or growth inhibition) at 3 ppm [9]

CCS(=O)(=O)c1c(N2Cc3ccc(S(=O)(=O)C(F)(F)F)cc3C2=O)nc2cc(C(F)(F)F)ccn12 [Compound P37, 2-[3-ethylsulfonyl-7-(trifluoromethyl)imidazo[1,2-a]pyridin-2-yl]-6-(trifluoromethyl-sulfonyl) isoindolin-1-one]
≥ 80%: mortality at 200 ppm [1] | percent effect (mortality or growth inhibition) at 200 ppm [2] | percent effect (mortality or growth inhibition) at 200 ppm [3] | mortality at 200 ppm [4] | mortality at 200 ppm [6] | percent control (mortality, anti-feedant effect or growth inhibition) at 200 ppm [7] | percent control (mortality, anti-feedant effect or growth inhibition) at 200 ppm [10] | percent effect (mortality or growth inhibition) at 3 ppm [9]
